Test results taken from paper PMC7180948, “New Insights into 4-Anilinoquinazolines as Inhibitors of Cardiac Troponin I–Interacting Kinase (TNNi3K)” (Molecules, 2020).

Columns and labels:
Assay in all cases: biochemical
Design in all cases: KINOMEscan competition binding panel (Eurofins DiscoverX), single concentration, % inhibition
Conditions in all cases: read-out: 7 at 1 µM % inhibition
[1] = target: EPHB3 (Homo sapiens, UniProt P54753)
Summary of the method: (§1)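 KINOMEscan binding panel of >400 kinases, run by Eurofins DiscoverX, with compounds tested at a single concentration of 1 µM.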

[2] = target: ERBB4 (Homo sapiens, UniProt Q15303)
Summary of the method: as §1

[3] = target: ACVR1B (Homo sapiens, UniProt P36896)
Sequence of ACVR1B (P36896 whole entry): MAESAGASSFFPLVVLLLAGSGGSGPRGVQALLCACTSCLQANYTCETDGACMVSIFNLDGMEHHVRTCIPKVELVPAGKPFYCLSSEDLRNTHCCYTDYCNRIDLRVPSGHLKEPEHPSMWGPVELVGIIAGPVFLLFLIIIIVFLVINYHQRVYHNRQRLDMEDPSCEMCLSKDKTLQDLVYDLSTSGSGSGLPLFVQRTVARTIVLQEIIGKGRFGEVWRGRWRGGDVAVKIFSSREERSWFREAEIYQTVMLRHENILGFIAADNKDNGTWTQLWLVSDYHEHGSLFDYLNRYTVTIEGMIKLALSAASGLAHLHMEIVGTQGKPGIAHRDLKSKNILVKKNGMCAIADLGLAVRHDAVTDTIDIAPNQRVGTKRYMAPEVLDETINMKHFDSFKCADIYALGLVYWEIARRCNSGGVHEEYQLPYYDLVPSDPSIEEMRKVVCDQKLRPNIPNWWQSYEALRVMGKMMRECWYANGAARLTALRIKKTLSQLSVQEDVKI
Summary of the method: as §1

[4] = target: ALK(C1156Y) (Homo sapiens, UniProt Q9UM73, C1156Y)
Summary of the method: as §1

[5] = target: KIT(D816H) (Homo sapiens, UniProt P10721, D816H)
Summary of the method: as §1

[6] = target: T1, MST1 (Homo sapiens, UniProt Q13043)
T1 construct: gene STK4
Summary of the method: as §1

[7] = target: PIM1 (Homo sapiens, UniProt P11309)
Summary of the method: as §1

[8] = target: BMPR1A (Homo sapiens, UniProt P36894)
Summary of the method: as §1

[9] = target: PRKG1 (Homo sapiens, UniProt Q13976)
Summary of the method: as §1

[10] = target: MET(Y1235D) (Homo sapiens, UniProt P08581, Y1235D)
Summary of the method: as §1

[11] = target: PIK3CA(C420R) (Homo sapiens, UniProt P42336, C420R)
Summary of the method: as §1

[12] = target: TNK2 (Homo sapiens, UniProt Q07912)
Sequence of TNK2 (Q07912 whole entry): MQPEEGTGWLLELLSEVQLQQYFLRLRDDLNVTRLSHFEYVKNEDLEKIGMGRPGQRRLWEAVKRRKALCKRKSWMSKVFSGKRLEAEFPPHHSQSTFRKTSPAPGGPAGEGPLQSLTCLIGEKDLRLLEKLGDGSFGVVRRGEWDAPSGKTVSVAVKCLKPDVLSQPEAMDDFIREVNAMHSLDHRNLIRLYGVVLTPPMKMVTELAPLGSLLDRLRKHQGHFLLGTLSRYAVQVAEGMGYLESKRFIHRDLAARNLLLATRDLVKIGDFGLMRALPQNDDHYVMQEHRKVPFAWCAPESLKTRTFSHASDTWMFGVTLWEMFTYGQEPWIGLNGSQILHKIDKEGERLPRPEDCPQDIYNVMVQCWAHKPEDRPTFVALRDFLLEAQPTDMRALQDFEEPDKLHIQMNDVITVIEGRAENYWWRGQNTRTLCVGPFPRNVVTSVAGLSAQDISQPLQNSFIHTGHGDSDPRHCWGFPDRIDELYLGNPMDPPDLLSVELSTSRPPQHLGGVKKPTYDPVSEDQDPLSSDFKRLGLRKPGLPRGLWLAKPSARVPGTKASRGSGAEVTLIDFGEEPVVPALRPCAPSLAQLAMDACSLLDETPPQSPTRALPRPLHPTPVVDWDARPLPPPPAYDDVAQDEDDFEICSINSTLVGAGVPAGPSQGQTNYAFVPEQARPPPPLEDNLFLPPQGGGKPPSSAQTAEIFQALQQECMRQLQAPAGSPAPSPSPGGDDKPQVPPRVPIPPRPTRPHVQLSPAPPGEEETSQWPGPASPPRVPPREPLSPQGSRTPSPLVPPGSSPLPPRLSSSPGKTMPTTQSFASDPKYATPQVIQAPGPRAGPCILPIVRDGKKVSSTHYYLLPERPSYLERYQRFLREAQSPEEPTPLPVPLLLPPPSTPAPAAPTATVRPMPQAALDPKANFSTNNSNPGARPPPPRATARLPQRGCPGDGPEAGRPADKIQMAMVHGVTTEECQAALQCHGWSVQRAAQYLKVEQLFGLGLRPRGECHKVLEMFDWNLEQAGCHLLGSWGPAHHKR
Summary of the method: as §1

[13] = target: GSK3B (Homo sapiens, UniProt P49841)
Summary of the method: as §1

[14] = target: DYRK1B (Homo sapiens, UniProt Q9Y463)
Sequence of DYRK1B (Q9Y463 whole entry): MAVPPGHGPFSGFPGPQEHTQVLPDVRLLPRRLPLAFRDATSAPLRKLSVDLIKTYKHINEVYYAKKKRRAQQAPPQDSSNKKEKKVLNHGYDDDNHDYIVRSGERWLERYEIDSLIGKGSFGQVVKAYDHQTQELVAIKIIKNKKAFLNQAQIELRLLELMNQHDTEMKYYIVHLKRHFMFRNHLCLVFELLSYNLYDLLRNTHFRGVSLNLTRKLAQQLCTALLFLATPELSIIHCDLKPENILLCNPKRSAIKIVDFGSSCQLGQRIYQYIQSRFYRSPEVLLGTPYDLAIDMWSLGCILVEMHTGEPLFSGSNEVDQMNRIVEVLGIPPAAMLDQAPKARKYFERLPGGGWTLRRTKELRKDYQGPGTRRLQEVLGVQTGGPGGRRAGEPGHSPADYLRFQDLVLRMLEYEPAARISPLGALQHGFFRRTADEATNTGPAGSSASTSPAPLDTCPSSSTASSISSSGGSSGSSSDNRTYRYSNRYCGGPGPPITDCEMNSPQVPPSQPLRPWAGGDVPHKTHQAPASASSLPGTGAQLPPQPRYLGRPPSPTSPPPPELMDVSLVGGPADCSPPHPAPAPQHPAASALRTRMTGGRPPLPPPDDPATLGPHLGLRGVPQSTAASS
Summary of the method: as §1

[15] = target: T2, IKK-alpha (Homo sapiens, UniProt O15111)
T2 construct: gene CHUK
Summary of the method: as §1

[16] = target: FLT3(N841I) (Homo sapiens, UniProt P36888, N841I)
Summary of the method: as §1

[17] = target: DAPK3 (Homo sapiens, UniProt O43293)
Sequence of DAPK3 (O43293 whole entry): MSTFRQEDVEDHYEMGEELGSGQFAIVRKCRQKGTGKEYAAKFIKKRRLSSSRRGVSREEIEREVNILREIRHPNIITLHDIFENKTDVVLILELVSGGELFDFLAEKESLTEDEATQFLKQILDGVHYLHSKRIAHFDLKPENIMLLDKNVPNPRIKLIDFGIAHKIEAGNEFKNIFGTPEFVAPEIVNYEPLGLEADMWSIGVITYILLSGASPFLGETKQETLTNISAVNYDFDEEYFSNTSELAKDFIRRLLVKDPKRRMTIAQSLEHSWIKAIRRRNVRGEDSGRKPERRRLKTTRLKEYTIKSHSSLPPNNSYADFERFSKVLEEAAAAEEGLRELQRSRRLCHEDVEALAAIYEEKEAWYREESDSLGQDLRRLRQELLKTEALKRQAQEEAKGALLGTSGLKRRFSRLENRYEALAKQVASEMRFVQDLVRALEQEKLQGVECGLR
Summary of the method: as §1

[18] = target: DMPK (Homo sapiens, UniProt Q09013)
Summary of the method: as §1

[19] = target: TGFBR1 (Homo sapiens, UniProt P36897)
Summary of the method: as §1

[20] = target: T3, ASK2 (Homo sapiens, UniProt O95382)
T3 construct: gene MAP3K6
Summary of the method: as §1

[21] = target: GRK3 (Homo sapiens, UniProt P35626)
Summary of the method: as §1

[22] = target: EGFR(L747-S752del, P753S) (Homo sapiens, UniProt P00533, DEL747-752/P753S)
Sequence of EGFR(L747-S752del, P753S) (P00533 with tags, fused parts or gaps DEL747-752/P753S): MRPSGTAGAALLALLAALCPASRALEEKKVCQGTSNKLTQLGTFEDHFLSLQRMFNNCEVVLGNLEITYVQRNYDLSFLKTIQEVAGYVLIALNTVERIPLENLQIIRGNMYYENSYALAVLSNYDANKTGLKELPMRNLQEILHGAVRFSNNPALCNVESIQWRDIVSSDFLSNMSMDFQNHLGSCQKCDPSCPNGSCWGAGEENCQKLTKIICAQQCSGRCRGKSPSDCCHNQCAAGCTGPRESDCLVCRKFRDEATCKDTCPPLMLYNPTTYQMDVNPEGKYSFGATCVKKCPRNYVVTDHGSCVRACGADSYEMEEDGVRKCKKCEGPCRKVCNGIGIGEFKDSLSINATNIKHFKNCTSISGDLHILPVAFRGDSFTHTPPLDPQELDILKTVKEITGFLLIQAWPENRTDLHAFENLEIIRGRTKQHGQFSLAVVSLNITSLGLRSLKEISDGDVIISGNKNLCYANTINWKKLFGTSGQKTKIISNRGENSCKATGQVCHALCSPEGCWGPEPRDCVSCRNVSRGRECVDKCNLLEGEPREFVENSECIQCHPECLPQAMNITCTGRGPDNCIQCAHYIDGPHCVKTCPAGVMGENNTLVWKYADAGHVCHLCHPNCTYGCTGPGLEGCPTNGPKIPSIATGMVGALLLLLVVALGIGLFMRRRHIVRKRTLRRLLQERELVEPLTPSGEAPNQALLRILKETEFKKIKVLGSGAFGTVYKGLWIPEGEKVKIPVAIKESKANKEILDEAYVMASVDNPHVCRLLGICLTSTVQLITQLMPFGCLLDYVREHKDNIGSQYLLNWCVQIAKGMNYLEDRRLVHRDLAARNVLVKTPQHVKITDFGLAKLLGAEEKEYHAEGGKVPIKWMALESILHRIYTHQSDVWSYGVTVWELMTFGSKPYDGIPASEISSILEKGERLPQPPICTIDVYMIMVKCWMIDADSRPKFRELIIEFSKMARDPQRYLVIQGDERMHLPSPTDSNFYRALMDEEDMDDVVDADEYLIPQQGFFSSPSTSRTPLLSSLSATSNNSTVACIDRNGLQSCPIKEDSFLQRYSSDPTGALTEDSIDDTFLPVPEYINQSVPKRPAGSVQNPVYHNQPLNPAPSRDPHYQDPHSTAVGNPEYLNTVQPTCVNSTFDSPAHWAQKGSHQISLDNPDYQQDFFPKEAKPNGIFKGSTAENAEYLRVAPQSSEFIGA
Summary of the method: as §1

[23] = target: T4, OSR1 (Homo sapiens, UniProt O95747)
T4 construct: gene OXSR1
T4 sequence (O95747 whole entry): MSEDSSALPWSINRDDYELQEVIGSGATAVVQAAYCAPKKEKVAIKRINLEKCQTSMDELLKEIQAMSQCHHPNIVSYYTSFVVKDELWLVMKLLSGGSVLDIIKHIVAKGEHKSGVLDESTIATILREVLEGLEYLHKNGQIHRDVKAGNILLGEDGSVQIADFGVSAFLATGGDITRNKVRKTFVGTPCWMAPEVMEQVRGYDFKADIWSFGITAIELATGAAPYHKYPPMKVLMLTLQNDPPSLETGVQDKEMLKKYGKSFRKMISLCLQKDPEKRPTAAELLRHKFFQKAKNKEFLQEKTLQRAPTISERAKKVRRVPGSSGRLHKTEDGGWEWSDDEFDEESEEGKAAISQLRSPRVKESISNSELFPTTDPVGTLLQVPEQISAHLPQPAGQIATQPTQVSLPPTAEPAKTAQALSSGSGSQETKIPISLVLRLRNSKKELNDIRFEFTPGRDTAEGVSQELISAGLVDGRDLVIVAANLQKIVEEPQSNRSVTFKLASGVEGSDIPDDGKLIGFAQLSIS
Summary of the method: as §1

[24] = target: AURKA (Homo sapiens, UniProt O14965)
Sequence of AURKA (O14965 whole entry): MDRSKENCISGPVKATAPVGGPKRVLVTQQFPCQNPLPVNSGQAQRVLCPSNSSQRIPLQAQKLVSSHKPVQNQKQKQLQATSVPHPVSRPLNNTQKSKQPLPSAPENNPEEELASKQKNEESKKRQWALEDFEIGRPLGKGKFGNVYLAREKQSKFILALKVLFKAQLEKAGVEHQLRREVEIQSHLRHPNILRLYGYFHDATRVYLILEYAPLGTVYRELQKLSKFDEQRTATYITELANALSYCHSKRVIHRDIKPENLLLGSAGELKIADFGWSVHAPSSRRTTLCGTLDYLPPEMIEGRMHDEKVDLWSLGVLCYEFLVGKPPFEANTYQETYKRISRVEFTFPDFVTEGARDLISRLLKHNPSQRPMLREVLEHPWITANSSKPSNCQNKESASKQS
Summary of the method: as §1

Question: With CNS(=O)(=O)c1ccc(N(C)C)c(Nc2ncnc3cc(OC)c(OC)cc23)c1 [compound 7, 3-((6,7-dimethoxyquinazolin-4-yl)amino)-4-(dimethylamino)-N-methylbenzenesulfonamide] as the compound, how does the inhibition at 1 µM [1] read?
Answer: 0%

Question: What about the inhibition at 1 µM [2] of the same compound?
Answer: 0%

Question: And the inhibition at 1 µM [3]?
Answer: 0%

Question: And the inhibition at 1 µM [4]?
Answer: 0%

Question: What about the inhibition at 1 µM [5] of the same compound?
Answer: 100%

Question: What about the inhibition at 1 µM [6] of the same compound?
Answer: 21%

Question: And the inhibition at 1 µM [7]?
Answer: 0%

Question: And the inhibition at 1 µM [8]?
Answer: 0%

Question: What about the inhibition at 1 µM [9] of the same compound?
Answer: 0%

Question: What about the inhibition at 1 µM [10] of the same compound?
Answer: 33%

Question: What about the inhibition at 1 µM [11] of the same compound?
Answer: 5%

Question: What about the inhibition at 1 µM [12] of the same compound?
Answer: 26%

Question: What about the inhibition at 1 µM [13] of the same compound?
Answer: 0%

Question: And the inhibition at 1 µM [14]?
Answer: 0%

Question: And the inhibition at 1 µM [15]?
Answer: 68%

Question: What about the inhibition at 1 µM [16] of the same compound?
Answer: 0%

Question: And the inhibition at 1 µM [17]?
Answer: 9%

Question: What about the inhibition at 1 µM [18] of the same compound?
Answer: 0%

Question: What about the inhibition at 1 µM [19] of the same compound?
Answer: 0%

Question: And the inhibition at 1 µM [20]?
Answer: 30%

Question: And the inhibition at 1 µM [21]?
Answer: 38%

Question: What about the inhibition at 1 µM [22] of the same compound?
Answer: 0%

Question: What about the inhibition at 1 µM [23] of the same compound?
Answer: 22%

Question: And the inhibition at 1 µM [24]?
Answer: 16%
